Drawing on patent US9365582B2, “Macrocyclic inhibitors of hepatitis C virus” (Janssen Sciences Ireland UC, priority 2006, dated 2016), this text covers Ki and EC50 for ten compounds.

Experiment [1] concerns the target HCV NS3/4A protease (Hepatitis C virus genotype 1a (isolate H77) (HCV), UniProt P27958). The experiment can be described thus: Inhibition assay (enzymatic assay) of full-length NS3 protease with NS4A cofactor. The settings on record: full-length NS3 1 nM, 25 μM NS4A cofactor, 0.5 μM depsipeptide substrate, 30° C., competitive inhibition model. Format: biochemical. The protocol: The aim of this in vitro assay was to measure the inhibition of HCV NS3/4A protease complexes by the compounds of the present invention.
Inhibitors were dissolved in DMSO, sonicated for 30 sec and vortexed. The solutions were stored at −20° C. between measurements.
The final concentration of DMSO in the assay sample was adjusted to 3.3%. […] A minimum of two replicates was performed for all measurements.

In experiment [2] the test system is HCV replicons (Huh-7 luc/neo cells, NS3-NS5B regions of HCV type 1b). The experiment can be described thus: Replicon assay (Huh-Luc cells, luciferase readout). The class given is cell-based. The settings on record: Hepatitis C virus, Huh-7, 72 h, read-out: EC50 (μM) Replicon assay. From the text:
This model, while not a complete infection model for HCV, currently is widely accepted as an efficacious model of autonomous HCV RNA replication. […] It will be appreciated that it is important to distinguish between compounds that specifically interfere with HCV functions from those that exert cytotoxic or cytostatic effects in the HCV replicon model, and as a consequence cause a decrease in HCV RNA or linked reporter enzyme concentration. Assays are known in the field for the evaluation of cellular cytotoxicity based for example on the activity of mitochondrial enzymes using fluorogenic redox dyes such as resazurin. Furthermore, cellular counter screens exist for the evaluation of non-selective inhibition of linked reporter gene activity, such as firefly luciferase.
The compounds of formula (I) were examined for activity in the inhibition of HCV RNA replication in a cellular assay. […] In essence, the method was as follows.
The assay utilized the stably transfected cell line Huh-7 luc/neo (hereafter referred to as Huh-Luc). This cell line harbors an RNA encoding a bicistronic expression construct comprising the wild type NS3-NS5B regions of HCV type 1b translated from an internal ribosome entry site (IRES) from encephalomyocarditis virus (EMCV), preceded by a reporter portion (FfL-luciferase), and a selectable marker portion (neo^R, neomycine phosphotransferase). The construct is bordered by 5′ and 3′ NTRs (non-translated regions) from HCV type Ib. Continued culture of the replicon cells in the presence of G418 (neo^R) is dependent on the replication of the HCV RNA. The stably transfected replicon cells that express HCV RNA, which replicates autonomously and to high levels, encoding inter alia luciferase, were used for screening the antiviral compounds.
The replicon cells were plated in 384 well plates in the presence of the test and control compounds which were added in various concentrations. Following an incubation of three days, HCV replication was measured by assaying luciferase activity (using standard luciferase assay substrates and reagents and a Perkin Elmer ViewLux™ ultraHTS microplate imager). […] The inhibitory activity of the compound on luciferase activity was monitored on the Huh-Luc cells, enabling a dose-response curve for each test compound.
A general note: A replicon is a self-replicating genome or part of one, used to study replication in cells.

Chain of HCV NS3/4A protease (P27958 1027-1657): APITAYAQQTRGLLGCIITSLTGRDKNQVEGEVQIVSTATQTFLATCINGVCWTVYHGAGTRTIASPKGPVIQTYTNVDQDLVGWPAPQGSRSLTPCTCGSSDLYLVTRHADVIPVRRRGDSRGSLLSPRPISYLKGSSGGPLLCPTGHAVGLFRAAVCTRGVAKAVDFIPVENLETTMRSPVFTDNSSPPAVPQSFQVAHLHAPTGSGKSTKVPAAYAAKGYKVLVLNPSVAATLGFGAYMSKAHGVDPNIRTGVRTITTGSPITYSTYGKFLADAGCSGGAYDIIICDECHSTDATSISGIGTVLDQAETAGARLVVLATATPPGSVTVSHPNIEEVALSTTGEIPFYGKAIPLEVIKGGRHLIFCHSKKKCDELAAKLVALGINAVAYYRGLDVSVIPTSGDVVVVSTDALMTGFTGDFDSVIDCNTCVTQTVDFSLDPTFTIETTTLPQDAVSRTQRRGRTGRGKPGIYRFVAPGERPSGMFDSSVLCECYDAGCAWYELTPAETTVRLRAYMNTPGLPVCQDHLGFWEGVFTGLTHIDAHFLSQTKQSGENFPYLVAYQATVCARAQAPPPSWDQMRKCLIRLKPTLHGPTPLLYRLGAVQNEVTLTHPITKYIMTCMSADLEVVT

Take `CCOc1cc(O[C@@H]2C[C@H]3C(=O)N[C@]4(C(=O)O)C[C@H]4/C=C\CCCCN(C)C(=O)[C@@H]3C2)c2cccc(C)c2n1` [Compound 12, 17-[2-ethoxy-8-methylquinolin-4-yloxy]-13-methyl-2,14-dioxo-3,13-diazatricyclo[13.3.0.0^4,6]octadec-7-ene-4-carboxylic acid]: in experiment [1], the inhibitory constant (Ki) (commonly a measure of affinity in units of concentration, obtained from inhibition or displacement) turned out to be 0.017 µM. Further, the EC50 (commonly the concentration needed to bring the measured effect to its halfway point) in experiment [2] stood at 7.5 µM.

Regarding `CCOc1cc(O[C@@H]2C[C@H]3C(=O)N[C@]4(C(=O)NS(=O)(=O)C5CC5)C[C@H]4/C=C\CCCCN(C)C(=O)[C@@H]3C2)c2ccc3c(c2n1)CCO3` [Compound 9, N-[17-[2-ethoxy-8,9-dihydrofuro[2,3-h]quinolin-4-yloxy]-13-methyl-2,14-dioxo-3,13-diazatricyclo[13.3.0.0^4,6]octadec-7-ene-4-carbonyl](cyclo-propyl)sulfonamide], in experiment [1], the affinity, expressed as Ki, was 0.0008 µM. In addition, in experiment [2], the 50% effective concentration (EC50) was 0.029 µM.

With `CCOc1cc(O[C@@H]2C[C@H]3C(=O)N[C@]4(C(=O)NS(=O)(=O)C5CC5)C[C@H]4/C=C\CCCCN(C)C(=O)[C@@H]3C2)c2cccc(Cl)c2n1` [Compound 11, N-[17-[8-chloro-2-ethoxyquinolin-4-yloxy]-13-methyl-2,14-dioxo-3,13-diazatricyclo[13.3.0.0^4,6]octadec-7-ene-4-carbonyl](cyclopropyl)-sulfonamide], the affinity in experiment [1] corresponds to a Ki of 0.0005 µM. The 50% effective concentration (EC50) in experiment [2] amounted to 0.0063 µM.

Compound `CCOc1cc(O[C@@H]2C[C@H]3C(=O)N[C@]4(C(=O)NS(=O)(=O)C5CC5)C[C@H]4/C=C\CCCCN(C)C(=O)[C@@H]3C2)c2ccc(OC)cc2n1` [Compound 5, N-[17-[2-ethoxy-7-methoxyquinolin-4-yloxy]-13-methyl-2,14-dioxo-3,13-diazatricyclo[13.3.0.0^4,6]octadec-7-ene-4-carbonyl](cyclopropyl)-sulfonamide] yielded a Ki in experiment [1] of 0.0001 µM. For the same compound, the EC50 in experiment [2] was found to be 0.014 µM.

On to `CCOc1cc(O[C@@H]2C[C@H]3C(=O)N[C@]4(C(=O)NS(=O)(=O)C5CC5)C[C@H]4/C=C\CCCCN(C)C(=O)[C@@H]3C2)c2ccc(OC)c(Br)c2n1` [Compound 7, N-[17-[8-bromo-2-ethoxy-7-methoxyquinolin-4-yloxy]-13-methyl-2,14-dioxo-3,13-diazatricyclo[13.3.0.0^4,6]octadec-7-ene-4-carbonyl](cyclo-propyl)sulfonamide], for which, in experiment [1], the affinity, expressed as Ki, was 0.0001 µM. Besides, the half-maximal effective concentration (EC50) in experiment [2] amounted to 0.0035 µM.

With `CCOc1cc(O[C@@H]2C[C@H]3C(=O)N[C@]4(C(=O)NS(=O)(=O)C5CC5)C[C@H]4/C=C\CCCCN(C)C(=O)[C@@H]3C2)c2ccc3c(c2n1)OCO3` [Compound 15, N-[17-[8-ethoxy[1,3]dioxolo[4,5-h]quinolin-6-yloxy]-13-methyl-2,14-dioxo-3,13-diazatricyclo[13.3.0.0^4,6]octadec-7-ene-4-carbonyl]-(cyclo-propyl)sulfonamide], in experiment [1], the Ki was 0.0002 µM. Moreover, the EC50 in experiment [2] was found to be 0.0035 µM.

In experiment [1], `CCOc1cc(O[C@@H]2C[C@H]3C(=O)N[C@]4(C(=O)O)C[C@H]4/C=C\CCCCN(C)C(=O)[C@@H]3C2)c2ccc(OC)cc2n1` [Compound 4, 17-[2-ethoxy-7-methoxyquinolin-4-yloxy]-13-methyl-2,14-dioxo-3,13-diazatricyclo[13.3.0.0^4,6]octadec-7-ene-4-carboxylic acid] showed an inhibitory constant (Ki) of 0.046 µM. For the same compound, the EC50 in experiment [2] is 4.26 µM.

`CCOc1cc(O[C@@H]2C[C@H]3C(=O)N[C@]4(C(=O)NS(=O)(=O)C5CC5)C[C@H]4/C=C\CCCCN(C)C(=O)[C@@H]3C2)c2cccc(C)c2n1` [Compound 13, N-[17-[2-ethoxy-8-methylquinolin-4-yloxy]-13-methyl-2,14-dioxo-3,13-diazatricyclo[13.3.0.0^4,6]octadec-7-ene-4-carbonyl](cyclopropyl)-sulfonamide] gave an inhibition constant Ki in experiment [1] of 0.0001 µM. Moreover, the EC50 in experiment [2] is 0.014 µM.

`CCOc1cc(O[C@@H]2C[C@H]3C(=O)N[C@]4(C(=O)O)C[C@H]4/C=C\CCCCN(C)C(=O)[C@@H]3C2)c2ccc3c(c2n1)OCO3` [Compound 14, 17-[8-ethoxy[1,3]dioxolo[4,5-h]quinolin-6-yloxy]-13-methyl-2,14-dioxo-3,13-diazatricyclo[13.3.0.0^4,6]octadec-7-ene-4-carboxylic acid] came in with a Ki in experiment [1] of 0.058 µM. For the same compound, the EC50 in experiment [2] came out at 3.3 µM.

In the case of `CCOc1cc(O[C@@H]2C[C@H]3C(=O)N[C@]4(C(=O)O)C[C@H]4/C=C\CCCCN(C)C(=O)[C@@H]3C2)c2cccc(Cl)c2n1` [Compound 10, 17-[8-chloro-2-ethoxyquinolin-4-yloxy]-13-methyl-2,14-dioxo-3,13-diazatricyclo[13.3.0.0^4,6]octadec-7-ene-4-carboxylic acid], the affinity in experiment [1], expressed as Ki, was 0.0077 µM. Besides, the EC50 in experiment [2] was 3.81 µM.
